Experimental findings from paper PMC9562371 (RSC Advances, 2022) are described below.

In the assay the target is T1, m-OLF (myocilin OLF domain) (Homo sapiens, UniProt Q99972).
T1 sequence (Q99972 244-504): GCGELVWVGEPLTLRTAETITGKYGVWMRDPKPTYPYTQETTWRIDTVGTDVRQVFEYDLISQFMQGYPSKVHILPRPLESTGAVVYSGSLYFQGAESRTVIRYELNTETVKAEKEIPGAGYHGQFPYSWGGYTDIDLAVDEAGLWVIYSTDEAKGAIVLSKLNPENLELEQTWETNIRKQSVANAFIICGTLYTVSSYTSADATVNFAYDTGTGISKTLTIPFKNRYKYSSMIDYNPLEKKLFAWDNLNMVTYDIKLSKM
Nature of the assay: surface plasmon resonance. The class given is binding. Background: Surface plasmon resonance follows binding to a sensor surface in real time, without labels.

As a reminder, the Kd is a measure of binding affinity in units of concentration. Higher therefore signals a looser complex. On to `O=C(O[C@@H]1Cc2c(O)cc(O)cc2O[C@@H]1c1ccc(O)c(O)c1)c1cc(O)c(O)c(O)c1` [ECG], for which the affinity, expressed as Kd, was 19.8 µM.
